Assay results published in ChEMBL document CHEMBL1133765, “QSAR model for drug human oral bioavailability” (J Med Chem, 2000).

Key:
physchem [1] = conditions: octanol/water
physchem [2] = assay: physchem
[3] = octanol/water
clinical [4] = conditions: human, in vivo, po
[5] = octanol/water; remark: listed apart in the source
clinical [6] = conditions: human, in vivo, po; remark: listed apart in the source
physchem [7] = conditions: octanol/water, pH 6.5

SMILES	logD (physchem [1]; pH 6.5, logD)	pKa (physchem [2])	delta logD [3]	bioavailability (clinical [4]; F) [%]	delta logD [5]	bioavailability (clinical [6]) [%]	logD (physchem [7])	logD (physchem [1]; pH 6.5)	bioavailability (clinical [4]) [%]
CNCCC[C@]12CC[C@H](c3ccccc31)c1ccccc12	0.52	10.5	-0.9	79	–	–	–	–	–
CNS(=O)(=O)Cc1ccc2[nH]cc(CCN(C)C)c2c1	-2.07	9.4	-0.9	< 20	–	–	–	–	–
COc1ccccc1N1CCN(CCCNc2cc(=O)n(C)c(=O)n2C)CC1	–	7.1	–	–	-0.52	79	0.9	–	–
OCCN1CCN(CCC=C2c3ccccc3Sc3ccc(C(F)(F)F)cc32)CC1	–	8.1	–	–	-0.83	79	2.88	–	–
CC(C)=CCN1CC[C@@]2(C)c3cc(O)ccc3C[C@@H]1[C@@H]2C	–	8.8	-0.88	–	–	–	–	1.05	49
Nc1nc(N)c2nc(-c3ccccc3)c(N)nc2n1	0.8	6.2	-0.15	79	–	–	–	–	–
CC(C)(C)NC[C@@H](O)COc1ccccc1C1CCCC1	–	9.3	–	–	-0.9	79	1.35	–	–
CC(=O)Nc1ccc(O)cc1 [ACETAMINOPHEN]	–	–	–	–	0	79	0.51	–	–
CC(C)COCC(CN(Cc1ccccc1)c1ccccc1)N1CCCC1 (stereo not given) [BEPRIDIL]	–	9.3	–	–	-0.9	79	1.1	–	–
COc1ccc(CCNCC(O)COc2cccc(C)c2)cc1OC (stereo not given) [BEVANTOLOL]	–	8.4	–	–	-0.87	79	1.11	–	–
Nc1c(CC(=O)O)cccc1C(=O)c1ccc(Br)cc1 [BROMFENAC]	–	4.3	–	–	0.9	79	1.39	–	–
Cc1nnc2n1-c1sc(Br)cc1C(c1ccccc1Cl)=NC2 [BROTIZOLAM]	–	6.2	–	–	-0.14	79	2.63	–	–
CCc1cccc2cc(C(O)CNC(C)(C)C)oc12 (stereo not given) [BUFURALOL]	–	9	–	–	-0.89	79	1	–	–
CC(C)(C)NCC(O)COc1cccc2c1CCCC2=O (stereo not given) [BUNOLOL]	–	9.3	–	–	-0.9	79	-0.4	–	–
CNC1=Nc2ccc(Cl)cc2C(c2ccccc2)=[N+]([O-])C1 [CHLORDIAZEPOXIDE]	–	4.8	-0.01	–	–	–	–	2.43	> 80
NS(=O)(=O)c1cc(C2(O)NC(=O)c3ccccc32)ccc1Cl (stereo not given) [CHLORTHALIDONE]	–	–	–	–	0	79	0.22	–	–
CN/C(=N/CCSCc1nc[nH]c1C)NC#N [CIMETIDINE]	–	–	–	–	–	79	-0.08	–	–
Clc1cccc(Cl)c1N=C1NCCN1 [CLONIDINE]	0.06	8	-0.82	> 80	–	–	–	–	–
Cc1onc(-c2c(Cl)cccc2Cl)c1C(=O)N[C@@H]1C(=O)N2[C@@H]1SC(C)(C)[C@@H]2C(=O)O [DICLOXACILLIN]	–	2.8	–	–	0.9	79	-0.79	–	–
CC(CCc1ccc(O)cc1)NCCc1ccc(O)c(O)c1 (stereo not given) [DOBUTAMINE]	-0.48	9.5	-0.9	< 20	–	–	–	–	–

SMILES	logD (physchem [1]; pH 6.5, logD)	pKa (physchem [2])	delta logD [3]	bioavailability (clinical [4]; F) [%]	delta logD [5]	bioavailability (clinical [6]) [%]	logD (physchem [7])	logD (physchem [1]; pH 6.5)	bioavailability (clinical [4]) [%]
NCCc1ccc(O)c(O)c1 [DOPAMINE]	-3.37	8.9	-0.9	< 20	–	–	–	–	–
COc1cc2nc(N3CCN(C(=O)C4COc5ccccc5O4)CC3)nc(N)c2cc1OC (stereo not given) [DOXAZOSIN]	–	6.5	–	–	-0.25	79	1.14	–	–
CSc1ccc(C(=O)c2[nH]c(=O)[nH]c2C)cc1 [ENOXIMONE]	–	–	–	–	0	79	2.32	–	–
CNC[C@H](O)c1ccc(O)c(O)c1 [EPINEPHRINE]	-3.49	9.9	-0.9	< 20	–	–	–	–	–
CCNCC(O)c1cccc(O)c1 (stereo not given) [ETILEFRINE]	–	9.8	-0.9	–	–	–	–	-2.86	49
CCNC(C)Cc1cccc(C(F)(F)F)c1 (stereo not given) [FENFLURAMINE]	–	10	-0.9	–	–	–	–	0.4	79
CCOC(=O)c1ncn2c1CN(C)C(=O)c1cc(F)ccc1-2 [FLUMAZENIL]	–	6.2	-0.14	–	–	–	–	1.01	< 20
O=c1[nH]cc(F)c(=O)[nH]1 [FLUOROURACIL]	–	8	0.1	–	–	–	–	-0.89	49
COCCCC/C(=N\OCCN)c1ccc(C(F)(F)F)cc1 [FLUVOXAMINE]	–	9.5	–	–	–	79	–	–	–
CC(C)NCC(O)c1ccc(O)c(O)c1 (stereo not given) [ISOPROTERENOL]	-2.76	8.7	-0.88	49	–	–	–	–	–
CN(C)CC(Oc1ccccc1)Oc1ccccc1 [MEDIFOXAMINE]	-0.43	9.2	-0.89	49	–	–	–	–	–
CCOC(=O)C1(c2ccccc2)CCN(C)CC1 [MEPERIDINE]	–	–	–	–	-0.88	79	0.25	–	–
CC(C)NCC(O)c1cc(O)cc(O)c1 (stereo not given) [METAPROTERENOL]	-2.72	9.3	-0.9	< 20	–	–	–	–	–
CN1CCN2c3ncccc3Cc3ccccc3C2C1 (stereo not given) [MIRTAZAPINE]	2.01	7.1	-0.55	79	–	–	–	–	–
Oc1ccc2c3c1O[C@H]1[C@@H](O)CC[C@@]4(O)[C@@H](C2)N(CC2CCC2)CC[C@]314 [NALBUPHINE]	–	8.7	-0.88	–	–	–	–	-0.63	< 20
COC(=O)C1=C(C)NC(C)=C(C(=O)OCCN(C)Cc2ccccc2)C1c1cccc([N+](=O)[O-])c1 (stereo not given) [NICARDIPINE]	1.18	7.6	-0.72	49	–	–	–	–	–
CNC(=C[N+](=O)[O-])NCCSCc1csc(CN(C)C)n1 [NIZATIDINE]	-0.08	6.8	-0.38	> 80	–	–	–	–	–
CNCCC=C1c2ccccc2CCc2ccccc21 [NORTRIPTYLINE]	1.08	–	-0.9	79	–	–	–	–	–
Cc1nccn1CC1CCc2c(c3ccccc3n2C)C1=O (stereo not given) [ONDANSETRON]	1.13	7.3	-0.61	79	–	–	–	–	–
CC(=O)CCCCn1c(=O)c2c(ncn2C)n(C)c1=O [PENTOXIFYLLINE]	0.29	–	0	49	–	–	–	–	–

SMILES	logD (physchem [1]; pH 6.5, logD)	pKa (physchem [2])	delta logD [3]	bioavailability (clinical [4]; F) [%]	delta logD [5]	bioavailability (clinical [6]) [%]	logD (physchem [7])	logD (physchem [1]; pH 6.5)	bioavailability (clinical [4]) [%]
CCC1(c2ccccc2)C(=O)NC(=O)NC1=O [PHENOBARBITAL]	–	–	0.21	–	–	–	–	1.43	> 80
CNC[C@H](O)c1cccc(O)c1 [PHENYLEPHRINE]	-3.02	9.8	-0.9	49	–	–	–	–	–
O=C1NC(=O)C(c2ccccc2)(c2ccccc2)N1 [PHENYTOIN]	2.47	8	0.1	> 80	–	–	–	–	–
CC(C)NCC(O)COc1cccc2[nH]ccc12 (stereo not given) [PINDOLOL]	–	8.8	–	–	-0.88	79	–	–	–
COc1cc(NC(C)CCCN)c2ncccc2c1 (stereo not given) [PRIMAQUINE]	-2.19	10.3	-0.9	79	–	–	–	–	–
CCC1(c2ccccc2)C(=O)NCNC1=O [PRIMIDONE]	0.91	–	0	> 80	–	–	–	–	–
CC(C)(Sc1cc(C(C)(C)C)c(O)c(C(C)(C)C)c1)Sc1cc(C(C)(C)C)c(O)c(C(C)(C)C)c1 [PROBUCOL]	7.29	–	0	< 20	–	–	–	–	–
CN1CCN(CCCN2c3ccccc3Sc3ccc(Cl)cc32)CC1 [PROCHLORPERAZINE]	2.51	7.5	-0.69	< 20	–	–	–	–	–
CNCCCC1c2ccccc2C=Cc2ccccc21 [PROTRIPTYLINE]	0.34	8.2	-0.84	> 80	–	–	–	–	–
CCN1CCC[C@H]1CNC(=O)c1c(O)c(Cl)cc(Cl)c1OC [RACLOPRIDE]	–	9.2	–	–	–	79	–	–	–
Nc1nc2ccc(OC(F)(F)F)cc2s1 [RILUZOLE]	–	6.5	–	–	–	79	–	–	–
Oc1ccc(C(O)C2CCCCN2)cc1O (stereo not given) [RIMITEROL]	–	9.9	-0.9	–	–	–	–	-3.13	< 20
Cc1nc2n(c(=O)c1CCN1CCC(c3noc4cc(F)ccc34)CC1)CCCC2 [RISPERIDONE]	–	–	-0.9	–	–	–	–	0.74	79
CC(=O)S[C@@H]1CC2=CC(=O)CC[C@]2(C)[C@H]2CC[C@@]3(C)[C@@H](CC[C@@]34CCC(=O)O4)[C@H]12 [SPIRONOLACTONE]	2.78	–	0	49	–	–	–	–	–
COc1cc2nc(N3CCN(C(=O)C4CCCO4)CC3)nc(N)c2cc1OC (stereo not given) [TERAZOSIN]	0.29	–	-0.52	> 80	–	–	–	–	–
CN(C/C=C/C#CC(C)(C)C)Cc1cccc2ccccc12 [TERBINAFINE]	3.3	8.5	-0.86	49	–	–	–	–	–
CC(C)(C)NCC(O)c1cc(O)cc(O)c1 (stereo not given) [TERBUTALINE]	-1.82	–	-0.89	< 20	–	–	–	–	–
O=c1n(CCCN2CCN(c3cccc(Cl)c3)CC2)nc2ccccn12 [TRAZODONE]	1.47	6.7	-0.33	> 80	–	–	–	–	–
